Experimental data as given in US7345020B2, “Mimetics of CD4 that inhibit immune response” (Thomas Jefferson University, priority 1995, dated 2008).
Entries after “also recorded” stand apart in the source; their conditions may differ. Positions of bridges follow the written chain, without caps; N, C: chain ends. Residues, ends and D or L forms follow the SMILES beside them.

How the values were obtained:
[1] = system: murine spleen responder cells with irradiated C3H stimulator cells; test: Murine mixed lymphocyte reaction; type: cell-based, mouse; details: in vitro
Method: Mice were sacrificed and spleens aseptically removed. Cell suspensions were made by gently pressing spleens through nylon mesh, washing cells with RPMI 1640 and hypotonic lysis of red blood cells. After 3 washes in RPMI 1640, cells were resuspended in complete medium (RPMI 1640, 10% heat inactivated FCS, 2 mM L-glutamine, penicillin/streptomycin) and 5×10^5 responder cells incubated with 1×10^5 stimulator cells (C3H spleen cells, 2000 rad irradiated) in triplicate in round bottom 96 well plates (final volume 200 μl), and incubated with the indicated concentration of peptide (0.01, 0.1, 1, 10, 100 and 1000 μM peptide) for 5 days at 37° C., 5% CO2. 1 μCi/WELL OF [^3H] TdR was added 12 hours before thymidine incorporation was measured. Labelled DNA from cells was harvested onto glass fiber filters with a PHD cell harvester (Cambridge, Mass.), and CPM determined by liquid scintillation counting with the use of a 1209 Rackbeta (LKB, Piscataway, N.J.).

[2] = system: experimental allergic encephalomyelitis (EAE); test: EAE inhibition in vivo (SJL EAE model); set-up: species or system mouse; details: for maximum mean EAE severity grade: SJL mice, 0.5 mg i.v. on day 12, 0-5 scale, untreated control maximum 2.0
Method: The C—C′ loop peptides were initially tested for efficacy in the SJL EAE model. In untreated animals, a high incidence of disease was observed 15-22 days after two s.c. inoculations of 1 mg of crude murine spinal cord homogenate in complete Freund's adjuvant. The severity of the disease was scored daily using the established 0-5 scale that describes the level of ascending paresis, Korngold, R., et al., 1986, Immunogenetics 24:309-315. The level of the mean EAE severity grade of mice for the untreated control group reached a maximum of 2.0. […] Also shown are the results of groups of mice that received the rD-mPGPtide, a mimic of residues 86-104 of murine homolog of CD4, which was described in Jameson et al. 1994, Nature 368:744-746.

[3] = system: human peripheral blood lymphocytes (responder cell alloreactive proliferation); details: for activity of cyclic CNSNQIC compared with this linear peptide in human MLR: linear peptides derived from the same C—C′ region
Method: For this assay, fresh peripheral blood lymphocytes from two different donors are co-cultured; the cells of one donor were irradiated and served as stimulators. Proliferation of these activated T cells was measured by measuring the incorporation of ^3H-thymidine at various timepoints.
For human MLR, 50 ml of whole blood was collected into anti-coagulant (ACD, acid citrate dextrose) containing tubes. In 50 ml conical tubes, 20 ml of blood was layered over 20 ml Ficoll 1077 (Sigma Chemical Co., St. Louis, Mo.) and centrifuged at 2000 rpm for 35-40 min at 15-20° C. Buffy coats and serum were collected in 3× volume of PBS centrifuged at 1500 rpm for 15 min at 15-20° C. Supernatants were discarded, cells were washed 2× in 50 ml PBS and resuspended in RPMI supplemented with 10% heat-inactivated (56°, 30 min) human serum (cat# H4522, Sigma), 50 IU/ml pen/strep and 2 mM (1% of 200 mM stock) L-glutamine (both from BioWhitaker).
In a 96-well flat bottom plate 1×10^5 responders were plated with 2×10^5 irradiated (3000 rad) simulators/well (added in 100 μl each), and incubated for 6, 7 or 8 days at 37° C., 7% CO2. Peptide analogues were added to quadruplicate wells, at a concentration of 100 μM (5 mg/ml stock) or titrations thereof, immediately after cells were plated. For radiolabelling, the cells were incubated with 1 μCi [^3H] TdR/well (25 μl) (diluted from 1 mCi/ml stock, Amersham) for the final 6 hours of incubation. Cells were harvested using a fiberfilter cell harvester (e.g., Harvester 96, Tomtec) and counted in a Beta Counter of Beta plate reader (1205 BS Betaplate Liquid Scintillation Counter, Wallac) with scintillation fluid.

Compound: YCNSNQIC
- inhibitory activity in murine MLR, in words [1]: inhibitory activity comparable to the cyclic peptide CNSNQIC
- effect on EAE in mice, in words [2]: inhibitory activity comparable to the cyclic peptide CNSNQIC
- inhibitory activity in human MLR / human T cell proliferation, in words ([3]; in vitro): inhibitory activity comparable to the cyclic peptide CNSNQIC

Compound: NSNQI
- activity of cyclic CNSNQIC compared with this linear peptide in human MLR [3]: significantly higher activity

Compound: KNSNQ
- activity of cyclic CNSNQIC compared with this linear peptide in human MLR [3]: significantly higher activity

Compound: KNSNQI
- activity of cyclic CNSNQIC compared with this linear peptide in human MLR [3]: significantly higher activity

Compound: CNSNQIC (linear, no disulfide) [linear CNSNQIC]
- maximum mean EAE severity grade [2]: 1.0

Compound: CC[C@H](C)[C@@H]1NC(=O)[C@H](CCC(N)=O)NC(=O)[C@H](CC(N)=O)NC(=O)[C@H](CO)NC(=O)[C@H](CC(N)=O)NC(=O)[C@@H](N)CSSC[C@@H](C(=O)O)NC1=O [cyclic CNSNQIC, CNSNQIC] (H-CNSNQIC-OH; disulfide 1-7; N-terminus and C-terminus assumed)
- maximum mean EAE severity grade [2]: 1.0
- effect on EAE in mice, in words [2]: effective to ameliorate EAE; also recorded: inhibitor of EAE in mice
- inhibition of human T cell activation (suppressive effect) ([3]; 3 h): 54.4%
